Measured values taken from PubChem BioAssay AID514 (SGCOxCompounds, 2006).

Molecular target: STE20-like serine/threonine-protein kinase (Homo sapiens) (UniProt Q9H2G2)
Assay: SLK binders by thermal stabilization, biophysical, purified human kinase, DSF (AID 514)
Details: differential scanning fluorimetry Tm shift, at 10 µM, protein 2 µM, buffer 10 mM HEPES, pH 7.5, NaCl 150 mM, stronger effect = higher value

STE20-like serine/threonine-protein kinase (Homo sapiens), sequence (Q9H2G2 whole entry, looked up): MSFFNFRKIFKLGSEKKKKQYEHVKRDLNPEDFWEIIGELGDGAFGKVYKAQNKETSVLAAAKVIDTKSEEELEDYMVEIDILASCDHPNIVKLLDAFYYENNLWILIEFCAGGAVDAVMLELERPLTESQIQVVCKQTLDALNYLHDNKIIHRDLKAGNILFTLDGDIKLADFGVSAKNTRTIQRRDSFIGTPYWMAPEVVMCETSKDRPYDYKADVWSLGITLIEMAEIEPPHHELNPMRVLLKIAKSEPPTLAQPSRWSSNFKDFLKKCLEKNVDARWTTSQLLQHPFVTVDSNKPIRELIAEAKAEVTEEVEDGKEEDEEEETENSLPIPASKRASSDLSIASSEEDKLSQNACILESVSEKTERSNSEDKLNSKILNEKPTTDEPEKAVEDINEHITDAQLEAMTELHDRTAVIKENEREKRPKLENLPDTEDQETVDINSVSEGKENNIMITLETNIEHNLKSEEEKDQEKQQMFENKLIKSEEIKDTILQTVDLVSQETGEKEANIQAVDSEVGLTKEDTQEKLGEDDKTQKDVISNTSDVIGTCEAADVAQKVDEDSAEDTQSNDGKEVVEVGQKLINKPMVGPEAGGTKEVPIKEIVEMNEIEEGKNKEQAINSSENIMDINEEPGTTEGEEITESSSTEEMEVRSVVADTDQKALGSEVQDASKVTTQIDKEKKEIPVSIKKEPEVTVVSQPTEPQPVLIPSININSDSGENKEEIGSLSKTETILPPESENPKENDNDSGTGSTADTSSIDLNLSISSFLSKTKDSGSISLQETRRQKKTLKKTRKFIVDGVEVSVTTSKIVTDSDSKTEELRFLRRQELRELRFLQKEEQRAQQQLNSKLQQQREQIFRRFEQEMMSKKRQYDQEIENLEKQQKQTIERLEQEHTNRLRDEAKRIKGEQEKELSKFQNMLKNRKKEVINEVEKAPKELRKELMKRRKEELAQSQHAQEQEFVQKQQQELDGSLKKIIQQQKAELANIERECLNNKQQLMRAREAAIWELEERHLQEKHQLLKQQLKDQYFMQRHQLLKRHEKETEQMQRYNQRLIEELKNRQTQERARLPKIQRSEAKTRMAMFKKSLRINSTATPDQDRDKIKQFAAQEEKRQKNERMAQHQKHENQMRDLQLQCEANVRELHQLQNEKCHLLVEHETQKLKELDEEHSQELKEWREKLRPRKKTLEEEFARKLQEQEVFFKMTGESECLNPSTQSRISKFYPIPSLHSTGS

| SMILES | Tm shift [C] |
| --- | --- |
| Fc1ccc(-c2cnc3ccc(NC4CCOCC4)nn23)cc1 | 3.6 |
| O=Nc1c(-c2c(O)[nH]c3cc(Br)ccc23)[nH]c2ccccc12 | 4.6 |
| COc1ccc(Nc2nc(N)c(C(=O)c3ccc(OC)cc3)s2)cc1 | 3.9 |
| Clc1cccc(Nc2ccn3ncc(-c4ccc5c(c4)OCO5)c3n2)c1 | 3.7 |
| Nc1nc(Nc2cccc(Cl)c2)sc1C(=O)c1ccc(F)cc1 | 3.7 |
| Nc1cccc(-c2cnn3ccc(Nc4cccc(Cl)c4)nc23)c1 | 3.7 |
| NCCCn1cc(C2=C(c3c[nH]c4ccccc34)C(=O)NC2=O)c2ccccc21 | 7.6 |
| Oc1cccc(-c2cnc3ccc(NCC4CC4)nn23)c1 | 3.2 |
| CC(C)[C@@H](CO)Nc1ccc2ncc(-c3cccc(Cl)c3)n2n1 | 4.7 |
| CC(C)[C@@H](CO)Nc1ccc2ncc(-c3ccc(C#N)cc3)n2n1 | 3.7 |
| CCn1cnc2c(Nc3cccc(Cl)c3)nc(N[C@@H]3CCCC[C@@H]3N)nc21 | 6.4 |
| CCC(CO)Nc1ccc2ncc(-c3cccc(OC(F)(F)F)c3)n2n1 (configuration not stated) | 3.6 |
| N#Cc1cnc2cnc(NCc3cccnc3)cc2c1Nc1ccc(F)c(Cl)c1 | 6.1 |
| O=C(c1ccc(Nc2nccc(-c3cc4ccccc4s3)n2)cc1)N1CCC(N2CCCC2)CC1 | 7.3 |
| CNC(=O)c1cc(Oc2ccc(NC(=O)Nc3ccc(C)c(C(F)(F)F)c3)cc2)ccn1 | 8 |
| Clc1cccc(-c2cnc3ccc(NC4CCOCC4)nn23)c1 | 3.9 |
| O=C(Nc1cccc(Nc2nccc(Nc3cccc(C(F)(F)F)c3)n2)c1)C1CC1 | 3.7 |
| O=Nc1c(-c2c(O)[nH]c3ccc(I)cc23)[nH]c2ccccc12 | 3.7 |
| Nc1cc2ncnc(Nc3cccc(Br)c3)c2cc1N | 5.7 |
| Clc1ccc(-c2cnc3ccc(NC4CCOCC4)nn23)cc1 | 3.1 |
| COc1cncc(-c2cnc3ccc(NC4CCOCC4)nn23)c1 | 3.4 |

| SMILES | Tm shift [C] |
| --- | --- |
| Nc1cccc(-c2cc3c(Oc4cccc(O)c4)ncnc3[nH]2)c1 | 5.7 |
| Oc1cccc(-c2cnc3ccc(NC4CCOCC4)nn23)c1 | 4.6 |
| CC(C)C(CO)Nc1nc(Nc2cc(N)cc(Cl)c2)c2ncn(C(C)C)c2n1 (configuration not stated) | 6.2 |
| Nc1nc(Nc2ccc(S(N)(=O)=O)cc2)nn1C(=S)Nc1c(F)cccc1F | 12.1 |
| O=C(Nc1cccc(Nc2cc(Nc3cccc(C(F)(F)F)c3)ncn2)c1)C1CC1 | 3.4 |
| O=C1Nc2ccc(Br)cc2/C1=C/c1cc2c([nH]1)CCCC2 | 3.6 |
| COc1cccc(-c2cnn3ccc(Nc4cccc(Cl)c4)nc23)c1 | 4.7 |
| FC(F)(F)Oc1cccc(-c2cnc3ccc(NC4CCOCC4)nn23)c1 | 3.6 |
| NCCNc1ncc(C(N)=O)c(Nc2cccc(C(F)(F)F)c2)n1 | 3.3 |
| Clc1cccc(-c2cnc3ccc(NCCc4ccccn4)nn23)c1 | 3.5 |
| CC(=O)c1cccc(-c2cnc3ccc(N[C@H](CO)C(C)C)nn23)c1 | 3.7 |
| Cn1c(O)c(C2=c3ccccc3=NC2=O)[nH]c1=S | 3.4 |
| COc1cc2ncnc(Nc3ccc(NC(=O)c4ccccc4)cc3)c2cc1OC | 5.5 |
| CCOc1cc2ncnc(Nc3cccc(Br)c3)c2cc1OCC | 7.9 |
| COc1ccc(C(=O)c2sc(Nc3cccc(C(F)(F)F)c3)nc2N)cc1 | 4.5 |
| Oc1ccc(Nc2nccn3c(-c4cn[nH]c4)cnc23)cc1 | 4.7 |
| CC(C)[C@@H](CO)Nc1ccc2ncc(-c3cccc(O)c3)n2n1 | 4.5 |
| NC(=O)Nc1sc(-c2ccccc2)cc1C(N)=O | 3.5 |
| COc1cncc(-c2cnc3ccc(N[C@H](CO)C(C)C)nn23)c1 | 3.1 |
| Nc1ccc(-c2cnn3ccc(Nc4cccc(Cl)c4)nc23)cc1 | 4 |
| Oc1ccc(-c2nc(-c3ccc(F)cc3)c(-c3ccncc3)[nH]2)cc1 | 4.4 |

| SMILES | Tm shift [C] |
| --- | --- |
| Cc1nc(N)sc1-c1ccnc(Nc2cccc(-n3oo3)c2)n1 | 3.6 |
| O=C1Nc2ccccc2/C1=C/c1ccc[nH]1 | 3.1 |
| O=C1NCc2c1c1c3ccccc3[nH]c1c1[nH]c3ccccc3c21 | 5.1 |
| Cn1cc(C2=C(c3c4n(c5ccccc35)CCC(CN)C4)C(=O)NC2=O)c2ccccc21 (configuration not stated) | 4.5 |
| Fc1cccc(-c2cnc3ccc(NC4CCOCC4)nn23)c1 | 4.1 |
| CC(C)[C@@H](CO)Nc1ccc2ncc(-c3cccc(OC(F)(F)F)c3)n2n1 | 4.3 |
| CCC(CO)Nc1ccc2ncc(-c3ccc(O)cc3)n2n1 (configuration not stated) | 3.7 |
| COc1ccc(Cl)cc1NC(=O)Nc1cc(C)nc2ccccc12 | 3.4 |
| Cc1[nH]c(/C=C2\C(=O)Nc3ccc(S(=O)(=O)N(C)c4cccc(Cl)c4)cc32)c(C)c1C(=O)N1CCN(C)CC1 | 7.7 |
| Nc1ncnc2c1c(I)cn2[C@@H]1O[C@H](CO)C(O)C1O (some centres not stated) | 4.2 |
| CCC(CO)Nc1ccc2ncc(-c3ccc(F)c(Cl)c3)n2n1 (configuration not stated) | 3.8 |
| CC(C)[C@@H](CO)Nc1ccc2ncc(-c3cccc(F)c3)n2n1 | 4.2 |
| ON(O)c1ccc(-c2nc(-c3ccc(F)cc3)c(-c3ccncc3)[nH]2)cc1 | 5.4 |
| O=c1c(O)c(-c2ccc(O)c(O)c2)oc2cc(O)cc(O)c12 | 5.7 |
| CN(C)S(O)(O)c1ccc2c(c1)/C(=C/c1cc3c([nH]1)CCCC3)C(=O)N2 | 6.2 |
| c1csc(-c2cnc3ccc(NCC4CC4)nn23)c1 | 3.3 |
| c1ccc(-c2cnc3ccc(NCc4ccco4)nn23)cc1 | 3.1 |
| COc1ccccc1-c1cnc2[nH]c(=O)n(C3CCCC3)c2n1 | 3.3 |
| COc1ccc(Nc2nc(N)c(C(=O)c3ccc(Cl)cc3)s2)cc1 | 4.4 |
| COc1cc(/C=C/C(=O)CC(=O)/C=C/c2ccc(O)c(OC)c2)ccc1O | 3.2 |
| O=C1NC(=O)C(c2c[nH]c3ccccc23)=C1c1c[nH]c2ccccc12 | 4.6 |

| SMILES | Tm shift [C] |
| --- | --- |
| CC(C)(C)n1nc(-c2ccc(Cl)cc2)c2c(N)ncnc21 | 3.6 |
| COc1ccc2c(c1)/C(=C/c1cnc[nH]1)C(=O)N2 | 3.3 |
| COc1c(C=O)c(O)cc2c1C(=O)c1ccccc1C2=O | 5.4 |
| CN(C)CC1CCn2c(c(C3=C(c4cn(C)c5ccccc45)C(=O)NC3=O)c3ccccc32)C1 (configuration not stated) | 4.2 |
| CN(C)CCCn1cc(C2=C(c3c[nH]c4ccccc34)C(=O)NC2=O)c2ccccc21 | 6.8 |
| O=Nc1c(-c2c(O)[nH]c3ccccc23)[nH]c2ccccc12 | 3.9 |
| O=C1Nc2ccccc2/C1=C\c1cnc[nH]1 | 3.3 |
| O=C1NC(=O)C(c2cn(CCCn3ccnc3)c3ccccc23)=C1Nc1ccccc1 | 6.3 |
| Cn1cc(/C=C2\C(=O)Nc3ccc(S(N)(=O)=O)cc32)c2ccccc21 | 5 |
| Cc1cc(Nc2nc(-c3ccccc3)nc3ccccc23)n[nH]1 | 6.4 |
| CC(C)(C)n1nc(-c2cccc3ccccc23)c2c(N)ncnc21 | 6.1 |
| CCN(CC)CCNC(=O)c1c(C)[nH]c(/C=C2\C(=O)Nc3ccc(Cl)cc32)c1C | 7.5 |
| COc1cc2ncnc(Nc3cccc(O)c3)c2cc1OC | 3.2 |
| OCC(O)CCO/N=C1/C(c2c(O)[nH]c3ccccc23)=Nc2ccccc21 (configuration not stated) | 4.7 |
| COc1cc2ncnc(Nc3cccc(Br)c3)c2cc1OC | 6.9 |
| CC(C)[C@@H](CO)Nc1ccc2ncc(-c3cccc(C(F)(F)F)c3)n2n1 | 4.8 |
| CC(O)(O)C1(O)C[C@@H]2O[C@@]1(C)n1c3ccccc3c3c4c(c5c6ccccc6n2c5c31)C(=O)NC4 (some centres not stated) | 6.3 |
| N=C(N)SCCCn1cc(C2=C(c3c[nH]c4ccccc34)C(=O)NC2=O)c2ccccc21 | 10.6 |
| CCCNC(=O)Nc1ccc(Oc2ncnc3cc(OC)c(OC)cc23)cc1Cl | 5.8 |
